The values below come from publication PMC12250347, “Calcium-dependent pathway as a primary cause of hypoxic RGC damage in monkey retinal explants” (PLOS One, 2025).

The structures appear in SMILES notation. Entries after “also recorded” stand apart in the source; their conditions may differ.

Test [1] concerns the target T1, human erythrocyte calpain 1 (Homo sapiens, UniProt P07384).
T1 construct: human erythrocyte calpain 1 (MilliporeSigma); purchased MilliporeSigma; host or cells: human erythrocytes
T1 sequence (P07384 1-714): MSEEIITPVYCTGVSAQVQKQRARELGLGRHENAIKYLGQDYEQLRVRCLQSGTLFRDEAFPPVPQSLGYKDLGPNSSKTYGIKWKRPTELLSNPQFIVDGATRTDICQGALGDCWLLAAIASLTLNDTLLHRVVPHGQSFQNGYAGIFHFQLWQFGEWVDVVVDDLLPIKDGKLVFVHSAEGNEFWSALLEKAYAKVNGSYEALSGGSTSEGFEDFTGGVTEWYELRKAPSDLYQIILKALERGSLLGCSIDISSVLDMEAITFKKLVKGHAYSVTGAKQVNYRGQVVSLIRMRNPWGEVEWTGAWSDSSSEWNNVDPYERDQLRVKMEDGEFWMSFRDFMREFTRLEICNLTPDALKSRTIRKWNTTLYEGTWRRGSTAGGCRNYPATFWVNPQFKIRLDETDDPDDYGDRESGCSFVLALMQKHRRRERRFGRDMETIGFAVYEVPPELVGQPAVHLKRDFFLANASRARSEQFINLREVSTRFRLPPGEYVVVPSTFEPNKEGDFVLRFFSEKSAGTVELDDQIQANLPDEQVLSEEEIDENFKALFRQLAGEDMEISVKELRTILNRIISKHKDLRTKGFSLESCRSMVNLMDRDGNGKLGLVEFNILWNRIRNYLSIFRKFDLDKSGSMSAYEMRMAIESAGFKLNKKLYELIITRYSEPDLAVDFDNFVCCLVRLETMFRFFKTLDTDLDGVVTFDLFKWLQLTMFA
T1 sequence (P04632 1-268 partner): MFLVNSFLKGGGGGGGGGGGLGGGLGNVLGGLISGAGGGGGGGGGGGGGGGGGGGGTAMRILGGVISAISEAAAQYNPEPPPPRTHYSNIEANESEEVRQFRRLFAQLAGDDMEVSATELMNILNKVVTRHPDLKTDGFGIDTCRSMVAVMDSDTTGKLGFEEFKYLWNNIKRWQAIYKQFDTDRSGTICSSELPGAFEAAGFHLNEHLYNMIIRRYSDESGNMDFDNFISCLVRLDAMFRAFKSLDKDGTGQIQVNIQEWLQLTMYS
The test is described as follows: Calpain-Glo Protease Assay. The conditions noted are these: 5 mM CaCl2, 10 min, room temperature; mean of two experiments. The test is classed as biochemical. The method, then: For measurement of inhibitory activities against calpains in vitro, Calpain-Glo Protease Assay (Promega; Madison, WI, USA) was performed using human erythrocyte calpain 1 (MilliporeSigma) and purified porcine calpain 2. Briefly, 24 µL of each calpain diluted with 20 mM Tris-HCl (pH 7.4), 1 µL of each inhibitor, and 25 µL of reaction buffer including CaCl2 in a 96-well plate was incubated for 10 min at room temperature. The final concentration of CaCl2 in the reaction solution was 5 mM. The luminescence was measured using a microplate reader (GloMax Discover System; Promega). IC50 values from two independent experiments were averaged.

The test system of test [2] is RGCs in monkey retinal explants. Description: PI staining and RGC counting in retinal explants under hypoxia/reoxygenation. The test is classed as cell-based, rhesus macaques (Macaca mulatta). The source says: Globes were obtained from rhesus macaques (Macaca mulatta) at 1–7 years of age from the Oregon National Primate Research Center (Beaverton, OR, USA). The wide range of ages was unavoidable because they became available from experiments that were unrelated to the present studies. These eyes were acceptable for the purpose of our experiments. The eyes were dissected within 5 hr after death, and excised eyes were soaked in cold Hanks’ balanced salt solution (HBSS; Corning, NY, USA) or Dulbecco’s phosphate-buffered saline (DPBS; Corning). Experimental animals were handled in accordance with the Research in Vision and Ophthalmology Statement for the Use of Animals in Ophthalmic and Vision Research and with the Guiding Principles in the Care and Use of Animals (Department of Health Education and Welfare Publication National Institutes of Health 80−23).
Retina explant culture was performed as described in our previous report, except for the induction of hypoxia. Briefly, a hypoxic chamber (Coy Laboratory Products, Grass Lake, MI, USA) was controlled at 0.3% oxygen with a 95% N2/5% CO2 gas mixture. Retinas were dissected into fan-shaped explants with 6 or 7 petals (> 5 mm) in HBSS. Each explant was placed with the RGC side facing up on a Millicell organotypic standing insert (0.4 μm, 30 mm diameter, MilliporeSigma) in six-well, culture plates. They were cultured for 2 hr at 37°C under 95% N2/5% CO2 in Neurobasal-A medium supplemented with B27, N2 supplements, 2 mM L-glutamine (Thermo Fisher Scientific, Waltham, MA, USA), and 100 μg/mL primocin (Invivogen, San Diego, CA, USA). Retinal explants were then chamber-cultured under hypoxic conditions for 16 hr in a culture medium with 0.5 mM glucose, under 0.3% oxygen. The retinas were then re-oxygenated for 8 hr in a culture medium with 5.5 mM glucose. Normoxic control retinas were cultured for 24 hr in a culture medium with 5.5 mM glucose. When present, calpain inhibitors (SNJ-1945, PD-151746, C2I, and ABT-957) and cathepsin inhibitors (Odanacatib and SID26681509) in 0.1% DMSO were used at the final concentration of 10 or 100 μM in the medium. BAPTA (Thermo Fisher Scientific) and BAPTA-AM (Thermo Fisher Scientific) were also used at a final concentration of 3 or 10 mM or a final concentration of 100 or 500 μM, respectively.
All inhibitors and BAPTA were treated simultaneously with hypoxia induction, and BAPTA-AM treatment was 2 hr before hypoxia induction.
To assess the disruption of membrane barrier function, propidium iodide (PI) was utilized. Following hypoxia/reoxygenation treatment, retinal explants were incubated for 20 min in a medium containing a final concentration of 2 μg/ml of PI. For quantitative analysis, the RGC marker, RNA-binding protein with multiple splicing (RBPMS) was used at a 1:100 dilution (PhosphoSolutions, Aurora, CO, USA). RBPMS-positive and PI-positive cells in the ganglion cell layer were counted in 2 images from 2 square areas (775 × 775 μm each) located 3–5 mm and 5–7 mm away from the tips of the fan-shaped retinal flat mounts. The percentage of PI-positive RGCs was calculated as [the number of PI and RBPMS-double positive cells/the number of all RBPMS-positive cells] × 100.

Where [3] appears, read: 16 hr hypoxia/8 hr reoxygenation (H16R8), cathepsin inhibitor at 10 or 100 µM.

The IC50 is the concentration that inhibits the measured activity by half.

The compound `CC(C)(F)C[C@H](N[C@@H](c1ccc(-c2ccc(S(C)(=O)=O)cc2)cc1)C(F)(F)F)C(=O)NC1(C#N)CC1` [Odanacatib] showed an IC50 in test [1] of 15.9 µM. Moreover, in test [2] (setting [3]), the “Effect on percentage of PI-positive RGCs” value is listed as “did not reduce”.

As for `CCc1ccccc1NC(=O)CSC(=O)NNC(=O)[C@H](Cc1c[nH]c2ccccc12)NC(=O)OC(C)(C)C` [SID26681509], the IC50 in test [1] is 81 µM. For the same compound, the “Effect on percentage of PI-positive RGCs” value in test [2] (setting [3]) is “did not reduce”.

Regarding `COCCOCCOC(=O)N[C@@H](CC(C)C)C(=O)N[C@@H](Cc1ccccc1)C(=O)C(=O)NC1CC1` [SNJ-1945], the IC50 in test [1] amounted to 0.077 µM. Also, the “Effect on percentage of PI-positive RGCs” value in test [2] (H16R8, calpain inhibitor at 100 µM) is given as “significantly decreased; also recorded: demonstrated efficacy in reducing PI-positive RGCs”.
